This note sets out measurements from patent US5998366A, “Method for ameliorating glutamic acid decarboxylase associated autoimmune disorders” (The Regents of the University of California, priority 1997, dated 1999).

This assay relates to IDDM associated autoantibodies. Briefly: ELISA of patient and control sera on plate-bound human GAD65 peptides. The conditions noted are these: none of the control sera. The assay is classed as binding. The text has this:
A set of peptides (20-23 amino acids in length, with 5 aa overlaps) that span the human GAD65 molecule were synthesized to determine whether sera from most individuals at risk, pre-IDDM and with IDDM (in contrast to healthy controls) do in fact produce antibodies that differentially recognize GAD65 linear epitopes distributed throughout the molecule.
Patient sera and most control sera were those used in a previous study (Kaufman, et al., J. Clin. Investigation, supra) All samples were coded and tested in a blind manner. Peptides were synthesized using an automatic instrument (Applied Biosystems, Foster City, Calif.) and standard conditions. Peptides were dissolved in 60 mM sodium bicarbonate buffer (pH 9.6) at 20 ug/ml and 100 ul of each was added to duplicated wells of a 96 well Nunc-Immuno Plate. Peptides were allowed to bind at 4° C. overnight. The plates were then washed three times with PBS+0.1% Tween 20 (wash buffer), after which the plates were pre-absorbed with 3% BSA in sodium bicarbonate buffer for 0.5 hours at 37° C., or at room temperature overnight. The plates were then washed 5 times with the above wash buffer. 100 ul of serum at a 1/300 dilution in PBS+0.1% Tween 20 and 1% BSA was added to each well and antibodies were allowed to bind for 1 hour at 37° C. […] The color development was measured at 410 nm using an ELISA plate reader (ICN, Biomedicals, Costa Mesa, Calif.). […]
(ELISA stands for enzyme-linked immunosorbent assay.)

For KPCSCSKVDVNYAFLHATDL [Peptide 6], the “share of patients recognizing the peptide” value is 25-37%.
